In patent publication US20240208961A1, “EIF4E INHIBITORS AND USES THEREOF” (PIC Therapeutics, Inc., priority 2022, published 2024):
pIC50: −log10 of the molar value. Where “and” joins values, the source holds several entries; their conditions need not be identical. Equal values may be shown once. Read-outs that look alike come from different tables or passages of the source.

Legend:
ZR-75-1 = experiment: Cell viability assay, adherent cell line, 5 day Alamar Blue (Example 8): ZR-75-1; format: cell-based; conditions: Homo sapiens, 120 h, ZR-75-1, Breast Cancer Cell Viability
[1] = Pharmacokinetic studies of certain compounds in female Balb/c mice (Example 5); format: in vivo; conditions: I-1 PO 30 mg/kg
Summary of the method: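 Female Balb/c mice (N=9) were fasted overnight and given compound PO as a suspension in 1% CMC/0.2% Tween 80 or IV in 5% DMSO/5% Solutol HS15/90% saline. Facial-vein plasma was taken from 0.083 to 24 h and assayed by LC-MS. Parameters are non-compartmental, and F was based on AUCINF or AUClast.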

[2] = 24 hr, BQL = below quantifiable limit of 1 ng/mL

Plasma concentration Individual ([1]; 0.083 hr, 30 mg/kg): 96.9 ng/mL and 51.8 ng/mL and 106 ng/mL
Plasma concentration Individual ([1]; 0.25 hr, 30 mg/kg): 467 ng/mL and 432 ng/mL
Plasma concentration Individual ([1]; 0.5 hr, 30 mg/kg): 464 ng/mL and 421 ng/mL
Plasma concentration Individual ([1]; 1 hr, 30 mg/kg): 592 ng/mL and 498 ng/mL
Plasma concentration Individual ([1]; 2 hr, 30 mg/kg): 367 ng/mL and 222 ng/mL
Plasma concentration Individual ([1]; 4 hr, 30 mg/kg): 130 ng/mL and 153 ng/mL
Plasma concentration Individual ([1]; 8 hr, 30 mg/kg): 78.9 ng/mL and 6.72 ng/mL and 12.2 ng/mL
Plasma concentration Individual [1, 2]: BQL
Plasma concentration Mean [1, 2]: BQL
concentration at 0.083 hr ([1]; female, Balb/c, mouse, plasma, po, 30 mg/kg, 0.083 hr, read-out: Plasma concentration Mean): 84.9 ng/mL
concentration at 0.25 hr ([1]; female, Balb/c, mouse, plasma, po, 30 mg/kg, 0.25 hr, read-out: Plasma concentration Individual): 383 ng/mL
concentration at 0.25 hr ([1]; female, Balb/c, mouse, plasma, po, 30 mg/kg, 0.25 hr, read-out: Plasma concentration Mean): 427 ng/mL
concentration at 0.5 h ([1]; female, Balb/c, mouse, plasma, po, 30 mg/kg, 0.5 hr, read-out: Plasma concentration Individual): 397 ng/mL
concentration at 0.5 h ([1]; female, Balb/c, mouse, plasma, po, 30 mg/kg, 0.5 hr, read-out: Plasma concentration Mean): 427 ng/mL
concentration at 1 h ([1]; female, Balb/c, mouse, plasma, po, 30 mg/kg, 1 hr, read-out: Plasma concentration Individual): 320 ng/mL
concentration at 1 hr ([1]; female, Balb/c, mouse, plasma, po, 30 mg/kg, 1 hr, read-out: Plasma concentration Mean): 470 ng/mL
concentration at 2 hr ([1]; female, Balb/c, mouse, plasma, po, 30 mg/kg, 2 hr, read-out: Plasma concentration Individual): 376 ng/mL
concentration at 2 hr ([1]; female, Balb/c, mouse, plasma, po, 30 mg/kg, 2 hr, read-out: Plasma concentration Mean): 322 ng/mL
concentration at 4 hr ([1]; female, Balb/c, mouse, plasma, po, 30 mg/kg, 4 hr, read-out: Plasma concentration Individual): 193 ng/mL
concentration at 4 hr ([1]; female, Balb/c, mouse, plasma, po, 30 mg/kg, 4 hr, read-out: Plasma concentration Mean): 159 ng/mL
concentration at 8 hr ([1]; female, Balb/c, mouse, plasma, po, 30 mg/kg, 8 hr, read-out: Plasma concentration Mean): 32.6 ng/mL
AUC(0-inf) ([1]; mouse, plasma): 1720 ng·h/mL
AUC(0-t) ([1]; mouse, plasma): 1640 ng·h/mL
Cmax ([1]; mouse, plasma): 470 ng/mL
MRT inf ([1]; mouse, plasma): 2.76 h
MRT last ([1]; mouse, plasma): 2.35 h
Tmax ([1]; mouse, plasma): 1 h
half-life ([1]; mouse, plasma): 1.81 h
Compound: CC(C)Cc1sc(Nc2ncc(-c3cccs3)cc2C(=O)O)nc1C1=CCOCC1 [Compound I-1]
pIC50 (ZR-75-1): ≥ 6.00
